Reference: PMC4333176, “Heterologous expression and biochemical characterization of a highly active and stable chloroplastic CuZn-superoxide dismutase from Pisum sativum” (BMC Biotechnology, 2015)

T1: PschSOD (recombinant chloroplastic CuZn-SOD) (Lathyrus oleraceus, UniProt P11964)
T1 construct: gene SODCP; mature form without chloroplast transit peptide (forward primer encodes MAAKKAVA), pET-28a His-tag kept, E. coli BL21 (DE3), Cu/Zn supplemented, ~18 kDa subunit, homodimer 36-38 kDa
T1 sequence (P11964 49-202): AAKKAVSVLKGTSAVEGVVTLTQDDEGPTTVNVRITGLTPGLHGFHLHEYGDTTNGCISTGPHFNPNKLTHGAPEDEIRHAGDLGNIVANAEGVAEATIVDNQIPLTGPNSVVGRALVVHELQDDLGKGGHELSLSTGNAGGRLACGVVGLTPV


Assays:
[1] = target: T1, PschSOD (recombinant chloroplastic CuZn-SOD); assay: pyrogallol autoxidation SOD assay, residual activity; type: biochemical; settings: superoxide from pyrogallol autoxidation; no constant
[2] = target: the molecule itself; assay: SEC; analytical gel filtration on a Bio-Sil 250 column, 5 mM K-PO4 pH 7.2 with 150 mM NaCl, calibrated with standard proteins; native mass compared with subunit mass on 15% SDS-PAGE

Row | Molecule | pyrogallol autoxidation SOD assay, residual activity [1] | stoichiometry N [2]
1 | [O]O [O2^∙−, superoxide anion] | Superoxide dismutase specific activity of PschSOD, assayed by pyrogallol method | 
2 | Pisum sativum chloroplastic CuZn-superoxide dismutase (PschSOD), recombinant, without chloroplast transit peptide (enzyme, Pisum sativum (pea), UniProt P11964 49-202, looked up, the forward primer (NdeI, [residues removed]) encodes M-AAKKAVA, the reverse primer ends at ...GLTPV and the stop codon; Cloned NdeI/BamHI into pET-28a; One Cu and one Zn per subunit (about 1.84 Cu and 1.6 Zn per dimer); also called Pisum sativum SOD II; pea chloroplastic SOD; source: E. coli BL21 (DE3), pET-28a, purified (Ni-NTA, desalting, buffer exchange, dialysis)) AAKKAVSVLKGTSAVEGVVTLTQDDEGPTTVNVRITGLTPGLHGFHLHEYGDTTNGCISTGPHFNPNKLTHGAPEDEIRHAGDLGNIVANAEGVAEATIVDNQIPLTGPNSVVGRALVVHELQDDLGKGGHELSLSTGNAGGRLACGVVGLTPV |  | 2
